# Measured values reported in patent US20050214759A1, “Enzymatic redox labelling of nucleic acids” (priority 2001, published 2005).
# Tests used:
# [1] = target: T1, T7 RNA polymerase (Escherichia phage T7, UniProt P00573); assay: Incorporation of Fc-UTP into RNA in the course of transcription; assay type: biochemical
# T1 construct: purchased USB
# Procedure: Circular plasmid pT7Mta which contains the promoter for T7 RNA polymerase followed by the gene for aptamer C40 and a T7 terminator sequence was used for transcription. T7 RNA polymerase tends to produce short abortive RNA transcripts when modified nucleotides are incorporated into the first 12 nucleotides of RNA.
# A typical transcription mixture (10 μL) contained 40 mM tris-HCl (pH 8.0), 15 mM MgCl2, 5 mM DTT, 0.05 mg/mL BSA, 1 UOL Rnasin, 0.4 mM NTPs, 10 ug/mL pT7Mta template, and 10U/uL T7 RNA polymerase. In some reaction mixtures, UTP was partially or fully substituted with […] in such a way that the total concentration of UTP and Fc-UTP was still 0.4 mM. Reaction mixtures were incubated at 37° C. for 2 h. Reactions were stopped by addition of 10 μL of gel loading buffer (98% formamide, 10 mM EDTA (pH 8.0), 0.025% bromophenol blue and 0.025% xylene cyanole PF) and heated at 95° C. for 2 min. RNA fragments were separated by 10% PAGE/8 M urea. The gel was stained by SYBR Green II (Sigma) according to manufacturers procedure, and visualised on a Fluorimager (Bio-Rad).
# [2] = Cyclic voltammetry of Fc-NTP; assay type: physicochemical; details: vs. Ag/AgCl; 20 mM tris-acetate pH 7.4, 100 mM KCl, 1 mM MgCl2; scan rate 20 mV/s
# Description: Fc-dUTP and Fc-UTP have characteristic absorption spectra which correspond to a superposition of spectra for the modified nucleotide and ferrocene carboxamide constituents. They have a strong absorption in the UV region and a seal, broad peak characteristics of ferrocene near 440 nm. Cyclic voltammetry of Fc-dUTP yields a symmetric peak with E1/2=398 mV vs. Ag/AgCl, consistent with reversible redox reaction of the Fc moiety. The redox potential of Fc-dUTP is 90 mV greater than the potential of ferrocenecarboxylate (310 mV vs. Ag/AgCl) measured in the same buffer (data now shown), reflecting the change of pentadienyl ring substituent (—COO to —CONHR) to one which is more electron-withdrawing. The observed potential is close to that reported for a ferrocene carboxamide moiety attached to the 5′-end of DNA oligonucleotides in aqueous buffer (406-425 mV vs. Ag/AgCl).
# Cyclic voltammograms were recorded with an electrochemical analyser (BAS). The three-electrode system consisted of a glassy carbon working electrode, a Ag/AgCl (saturated KCl) reference electrode (Eref=206 mV) and a platinum counter electrode. Experiments were performed in a 5 ml electrochemical cell containing 0.8 mM Fc-NTP in 20 mM tris-acetate (pH 7.4), 100 mM KCl, and 1 mM MgCl2 at a scan rate of 20 mV/s. The scan range was from −0.1 to +0.8 V (vs. Ag/AgCl). (See FIG. 2).
# T1 sequence (P00573 whole entry): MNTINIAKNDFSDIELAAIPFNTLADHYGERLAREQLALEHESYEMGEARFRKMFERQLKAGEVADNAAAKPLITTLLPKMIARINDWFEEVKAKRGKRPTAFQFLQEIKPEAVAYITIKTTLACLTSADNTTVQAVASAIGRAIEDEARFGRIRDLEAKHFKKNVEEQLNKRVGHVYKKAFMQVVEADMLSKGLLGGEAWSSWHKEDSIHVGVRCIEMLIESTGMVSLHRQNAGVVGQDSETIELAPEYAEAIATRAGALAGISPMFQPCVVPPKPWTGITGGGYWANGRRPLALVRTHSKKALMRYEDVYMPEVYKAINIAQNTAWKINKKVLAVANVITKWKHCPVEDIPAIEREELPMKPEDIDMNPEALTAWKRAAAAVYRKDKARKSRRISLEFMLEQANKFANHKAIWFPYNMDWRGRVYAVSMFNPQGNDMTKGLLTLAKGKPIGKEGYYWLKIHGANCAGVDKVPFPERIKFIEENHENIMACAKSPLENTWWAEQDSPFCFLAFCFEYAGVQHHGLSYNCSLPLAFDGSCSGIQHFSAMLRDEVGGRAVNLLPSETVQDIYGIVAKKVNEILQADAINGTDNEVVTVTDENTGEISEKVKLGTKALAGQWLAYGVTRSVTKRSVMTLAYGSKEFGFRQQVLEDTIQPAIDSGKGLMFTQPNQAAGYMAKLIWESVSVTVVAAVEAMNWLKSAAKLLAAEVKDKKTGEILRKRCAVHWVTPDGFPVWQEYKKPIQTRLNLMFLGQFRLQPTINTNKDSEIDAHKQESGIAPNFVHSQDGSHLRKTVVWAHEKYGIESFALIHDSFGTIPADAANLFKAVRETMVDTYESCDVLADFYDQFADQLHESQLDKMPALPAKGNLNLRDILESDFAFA
Molecule,"amount of RNA product formed ([1]; substitution of UTP by Fc-UTP, total 0.4 mM)",amount of RNA product formed ([1]; total absence of UTP (full substitution by Fc-UTP)),E1/2 (redox potential) [2]
"O=C(NCC=Cc1cn([C@@H]2O[C@H](COP(=O)(O)OP(=O)(O)OP(=O)(O)O)[C@@H](O)[C@H]2O)c(=O)[nH]c1=O)[c-]1cccc1.[Fe+2].c1cc[cH-]c1 [Fc-UTP, 5-(3ferrocenecarboxamidopropenyl-1)-uridine-5′-triphosphate]",significant decrease in the amount of RNA product formed,synthesized a significant amount of RNA product,
ferrocenecarboxylate [reference compound],,,310 mV
